Results reported in patent publication US9023789B2, “Amylin analogs and pharmaceutical compositions thereof” (Novo Nordisk A/S, priority 2012, dated 2015).
Numbered stars: 1 amine (or outer) side, 2 acyl side, 3 side chain; on linkers, the order of the positions; unused ones are H or OH. Bridge positions count the residues as written; N and C are the ends. Side chains are listed from the residue outwards. Peptide text beside a SMILES is read from it. * marks the point of attachment. C20 diacid = O=C(O)CCCCCCCCCCCCCCCCCCC(=O)*; γGlu = O=C(O)[C@H](CCC(=O)[*:2])N[*:1]

Tests used:
[1] = ASSAY (IX) pK, determination of T½ in mini-pig; format: in vivo; details: male, Göttingen, minipig, plasma, iv, 2 nmol/kg
[2] = system: Male Wistar rats; assay: ASSAY (XII) effect from single subcutaneous administration on plasma calcium in rats; format: in vivo, rat; details: for Plasma calcium red (%) 0-12 h (maximal): single s.c., compared to vehicle; for suppression of plasma calcium level relative to vehicle: monitored over 24 hours
How it was run: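 Male Wistar rats (~250 g), groups of five, received a single subcutaneous dose at time 0. Blood drawn at −15 min, 1, 2, 4, 7, 12 and 24 h; total calcium measured in heparin plasma, reported as mean±SEM.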

[3] = system: Male Sprague-Dawley rats; assay: ASSAY (XI) single subcutaneous administration, food intake monitored for 48 hours in rats; format: in vivo, rat; details: for Food intake red (%) 0-24 h / Food intake red (%) 24-48 h: single s.c., compared to vehicle; for food intake monitored over 48 hours: single subcutaneous administration, versus vehicle
How it was run: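 Male Sprague-Dawley rats from Taconic Europe, weighing about 250 g on the test day, were singly housed in an online food intake monitoring system (Ellegaard MBRose, Denmark). Before the study they were acclimatized to a reversed light cycle, with lights on from 10 PM to 10 AM. Each rat then received one subcutaneous dose of the analogue, and data are reported as mean±SEM.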

[4] = biological target: T1, rat amylin receptor (rat calcitonin receptor + rat RAMP 3) (Rattus norvegicus, UniProt P32214+Q9JJ73); assay: ASSAY (VI) binding to the rat amylin receptor; details: for IC50: binding to rat amylin receptor, read-out: rAmylin-R bind IC50
T1 construct: expressed in transfected cells; host or cells: BHK tk'ts 13 (transient, FuGENE 6), membranes
T1 sequence (P32214 25-479 isoform P32214-2 limits assumed): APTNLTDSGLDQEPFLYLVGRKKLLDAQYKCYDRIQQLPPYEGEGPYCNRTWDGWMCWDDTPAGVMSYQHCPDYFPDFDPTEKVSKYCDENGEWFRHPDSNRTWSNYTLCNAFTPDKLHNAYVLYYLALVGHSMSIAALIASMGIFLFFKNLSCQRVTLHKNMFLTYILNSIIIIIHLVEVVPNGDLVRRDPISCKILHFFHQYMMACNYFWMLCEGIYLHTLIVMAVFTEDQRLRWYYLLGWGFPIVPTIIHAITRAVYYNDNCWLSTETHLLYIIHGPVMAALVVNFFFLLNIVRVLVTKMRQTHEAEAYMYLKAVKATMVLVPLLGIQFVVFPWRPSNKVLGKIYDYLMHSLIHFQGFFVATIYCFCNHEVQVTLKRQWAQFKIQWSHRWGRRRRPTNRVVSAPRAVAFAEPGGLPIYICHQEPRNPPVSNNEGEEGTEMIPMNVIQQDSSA
T1 sequence (Q9JJ73 23-147 partner): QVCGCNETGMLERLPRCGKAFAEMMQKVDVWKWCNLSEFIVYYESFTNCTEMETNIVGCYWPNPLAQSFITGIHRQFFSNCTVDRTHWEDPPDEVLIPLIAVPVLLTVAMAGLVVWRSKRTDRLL
How it was run: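 This assay measured binding to the rat amylin receptor. BHK tk′ts 13 cells were transiently transfected with the rat calcitonin receptor using FuGENE® 6 (Roche), following the manufacturer's recommendations. About 48 hours after transfection, the cells were harvested and membranes were prepared from them for the binding determination.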

[5] = ASSAY (X) pK, determination of T½ in rat; format: in vivo; details: male, Sprague Dawley, plasma, iv, 20 nmol/kg
[6] = biological target: T2, human calcitonin (a) receptor in BHK570 cells (Homo sapiens, UniProt P30988); assay: ASSAY (II)a functional assay, human calcitonin receptor (CRE luciferase); format: cell-based; details: read-out: hCTR funct. EC50
T2 construct: expressed in transfected cells
T2 sequence (P30988 25-474): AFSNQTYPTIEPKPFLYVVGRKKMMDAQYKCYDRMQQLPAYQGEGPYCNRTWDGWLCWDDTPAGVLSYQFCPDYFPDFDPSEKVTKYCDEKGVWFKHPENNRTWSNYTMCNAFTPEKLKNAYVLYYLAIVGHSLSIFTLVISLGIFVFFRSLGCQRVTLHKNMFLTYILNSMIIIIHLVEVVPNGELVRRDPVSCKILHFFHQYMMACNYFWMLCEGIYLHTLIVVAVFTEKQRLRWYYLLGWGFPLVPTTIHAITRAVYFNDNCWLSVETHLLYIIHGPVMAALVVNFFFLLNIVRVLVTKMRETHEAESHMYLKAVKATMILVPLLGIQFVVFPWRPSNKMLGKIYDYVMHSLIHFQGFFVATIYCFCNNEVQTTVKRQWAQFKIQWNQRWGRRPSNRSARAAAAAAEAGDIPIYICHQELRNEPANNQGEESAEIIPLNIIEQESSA
How it was run: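 Ligand exposure 3 h at 37 °C, 5% CO2 in DMEM with 10% FBS, 10 mM Hepes pH 7.4. cAMP-driven luciferase read by luminescence after 30 min LucLite at room temperature.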

[7] = biological target: T3, human calcitonin receptor (Homo sapiens, UniProt P30988); assay: ASSAY (VII) binding to the human calcitonin receptor (SPA, 125I-Calcitonin); details: read-out: hCTR bind IC50;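 note: cell membranes (35 ng/µL) combined with SPA beads in 40 µL of pH 7.4 Hepes buffer, 384-well format, signal counted on a TopCounter instrument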
T3 construct: expressed in transfected cells
T3 sequence (P30988 25-474): T2 sequence (P30988 25-474)

[8] = Table 7, rat binding selectivity, rCTR IC50 / rAmylin-R IC50
[9] = Table 7a (preferred compounds), rat binding selectivity, rCTR IC50 / rAmylin-R IC50
[10] = ratio of rCTR bind IC50 to rAmylin-R bind IC50

Compound | half-life [1] | Plasma calcium red (%) 0-12 h (maximal) ([2]; 3 nmol/kg) | Plasma calcium red (%) 0-12 h (maximal) ([2]; 30 nmol/kg) | suppression of plasma calcium level relative to vehicle ([2]; single subcutaneous 3 nmol/kg) | suppression of plasma calcium level relative to vehicle ([2]; single subcutaneous 30 nmol/kg) | suppression of plasma calcium level relative to vehicle ([2]; single subcutaneous 100 nmol/kg) | suppression of plasma calcium level relative to vehicle ([2]; single subcutaneous 300 nmol/kg) | Food intake red (%) 0-24 h ([3]; 3 nmol/kg) | Food intake red (%) 24-48 h ([3]; 3 nmol/kg) | Food intake red (%) 0-24 h ([3]; 30 nmol/kg) | Food intake red (%) 24-48 h ([3]; 30 nmol/kg) | food intake monitored over 48 hours ([3]; 30 nmol/kg) | IC50 ([4]; Table 7) | Ratio rCT/rAmylin binding [4, 8] | Ratio rCT/rAmylin binding [4, 9] | Ratio rCT/rAmylin binding [4, 10] | half-life [5] | EC50 [6] | IC50 [7] | suppression of plasma calcium level relative to vehicle ([2]; single subcutaneous administration, increasing doses (all doses tested))
CC[C@H](C)[C@H](NC(=O)[C@H](C)NC(=O)CNC(=O)[C@H](Cc1ccccc1)NC(=O)[C@H](CC(N)=O)NC(=O)[C@@H]1CCCN1C(=O)[C@H](CO)NC(=O)[C@H](CO)NC(=O)[C@H](Cc1c[nH]cn1)NC(=O)[C@H](CCCNC(=N)N)NC(=O)[C@H](CC(C)C)NC(=O)[C@H](Cc1ccccc1)NC(=O)[C@H](CCC(=O)O)NC(=O)[C@H](C)NC(=O)[C@H](CC(C)C)NC(=O)[C@H](CCCNC(=N)N)NC(=O)[C@H](CCC(N)=O)NC(=O)[C@@H](NC(=O)[C@H](C)NC(=O)[C@@H]1CSSC[C@H](NC(=O)[C@@H](N)CCCCNC(=O)CC[C@H](NC(=O)CCCCCCCCCCCCCCCCCCC(=O)O)C(=O)O)C(=O)N[C@@H](CC(N)=O)C(=O)N[C@@H]([C@@H](C)O)C(=O)N[C@@H](C)C(=O)N[C@@H]([C@@H](C)O)C(=O)N1)[C@@H](C)O)C(=O)N1CCC[C@H]1C(=O)N[C@@H](CO)C(=O)N[C@@H](CO)C(=O)N[C@H](C(=O)N[C@@H](CC(N)=O)C(=O)N[C@H](C(=O)NCC(=O)N1CCC[C@H]1C(=O)N[C@@H](CCC(=O)O)C(=O)N[C@H](C(=O)N[C@@H](Cc1ccc(O)cc1)C(N)=O)[C@@H](C)O)C(C)C)[C@@H](C)O [Example 109] (H-K([γGlu-C20 diacid])CNTATCATQRLAEFLRHSSPNFGAIPSSTNVGPETY-NH2; disulfide 2-7 (inferred); N-terminus assumed) | 95 h | 7% | 27% | does not trigger a notable suppression of the calcium level | induces a minor suppression of the calcium level | induces a more pronounced suppression of the calcium level | induces a more pronounced suppression of the calcium level | 57% | 50% | 89% | 91% | reduces food intake | 0.164 nM | 63.2 | 63.2 | 63.2 | 17 h |  |  | 
CC[C@H](C)[C@H](NC(=O)[C@H](C)NC(=O)CNC(=O)[C@H](Cc1ccccc1)NC(=O)[C@H](CC(N)=O)NC(=O)[C@@H]1CCCN1C(=O)[C@H](CO)NC(=O)[C@H](CO)NC(=O)[C@H](Cc1c[nH]cn1)NC(=O)[C@H](CCCNC(=N)N)NC(=O)[C@H](CC(C)C)NC(=O)[C@H](Cc1ccccc1)NC(=O)[C@H](CCC(=O)O)NC(=O)[C@H](C)NC(=O)[C@H](CC(C)C)NC(=O)[C@H](CCCNC(=N)N)NC(=O)[C@H](CCC(N)=O)NC(=O)[C@@H](NC(=O)[C@H](C)NC(=O)[C@@H]1CSSC[C@H](NC(=O)[C@@H](N)CCCCNC(=O)CC[C@H](NC(=O)CC[C@H](NC(=O)CCCCCCCCCCCCCCCCCCC(=O)O)C(=O)O)C(=O)O)C(=O)N[C@@H](CC(N)=O)C(=O)N[C@@H]([C@@H](C)O)C(=O)N[C@@H](C)C(=O)N[C@@H]([C@@H](C)O)C(=O)N1)[C@@H](C)O)C(=O)N1CCC[C@H]1C(=O)N[C@@H](CO)C(=O)N[C@@H](CO)C(=O)N[C@H](C(=O)N[C@@H](CC(N)=O)C(=O)N[C@H](C(=O)NCC(=O)N1CCC[C@H]1C(=O)N[C@@H](CCC(=O)O)C(=O)N[C@H](C(=O)N[C@@H](Cc1ccc(O)cc1)C(N)=O)[C@@H](C)O)C(C)C)[C@@H](C)O [Example 106] (H-K([γGlu-γGlu-C20 diacid])CNTATCATQRLAEFLRHSSPNFGAIPSSTNVGPETY-NH2; disulfide 2-7; N-terminus assumed) | 49 h |  | 6% |  |  |  |  |  |  | 63% | 69% | reduce food intake | 0.182 nM | 88.5 | 88.5 | 88.5 | 37 h | 2.36 nM | 2.14 nM | 
CC[C@H](C)[C@H](NC(=O)[C@H](C)NC(=O)CNC(=O)[C@H](Cc1ccccc1)NC(=O)[C@H](CC(N)=O)NC(=O)[C@@H]1CCCN1C(=O)[C@H](CO)NC(=O)[C@H](CO)NC(=O)[C@H](Cc1c[nH]cn1)NC(=O)[C@H](CCCNC(=N)N)NC(=O)[C@H](CC(C)C)NC(=O)[C@H](Cc1ccccc1)NC(=O)[C@H](CC(N)=O)NC(=O)[C@H](C)NC(=O)[C@H](CC(C)C)NC(=O)[C@H](CCCNC(=N)N)NC(=O)[C@H](CCC(N)=O)NC(=O)[C@@H](NC(=O)[C@H](C)NC(=O)[C@@H]1CSSC[C@H](NC(=O)[C@@H](N)CCCCNC(=O)CC[C@H](NC(=O)CC[C@H](NC(=O)CCCCCCCCCCCCCCCCCCC(=O)O)C(=O)O)C(=O)O)C(=O)N[C@@H](CC(N)=O)C(=O)N[C@@H]([C@@H](C)O)C(=O)N[C@@H](C)C(=O)N[C@@H]([C@@H](C)O)C(=O)N1)[C@@H](C)O)C(=O)N1CCC[C@H]1C(=O)N[C@@H](CO)C(=O)N[C@@H](CO)C(=O)N[C@H](C(=O)N[C@@H](CC(N)=O)C(=O)N[C@H](C(=O)NCC(=O)N[C@@H](Cc1c[nH]cn1)C(=O)N[C@@H](CC(N)=O)C(=O)N[C@H](C(=O)N[C@@H](Cc1ccc(O)cc1)C(N)=O)[C@@H](C)O)C(C)C)[C@@H](C)O [Example 86] (H-K([γGlu-γGlu-C20 diacid])CNTATCATQRLANFLRHSSPNFGAIPSSTNVGHNTY-NH2; disulfide 2-7) | 104 h |  | 0% |  |  |  |  |  |  | 48% | 26% | reduces food intake | 2.8 nM | 125.7 | 125.7 | 125.7 | 20 h | 19.2 nM | 133 nM | None of the doses trigger a notable suppression of the calcium level
